Reference: paper PMC5218480 (PLoS ONE, 2017)

System: MV-4-11 cells
Test: Gene expression microarray analysis (Affymetrix PrimeView) and GSEA
Assay type: cell-based, human
Design: RFU PODN (11730768_x_at) / Fold change /veh PODN (11730768_x_at) / RFU LINC00158 (11744669_a_at) / Fold change /veh LINC00158 (11744669_a_at) / RFU DUSP10 (11751237_a_at) / Fold change /veh DUSP10 (11751237_a_at) / RFU ID3 (11757404_x_at) / Fold change /veh ID3 (11757404_x_at) / RFU PLEKHG5 (11737974_s_at) / Fold change /veh PLEKHG5 (11737974_s_at) / RFU LRRC4B (11730491_at) / Fold change /veh LRRC4B (11730491_at) / RFU GIMAP4 (11747438_a_at) / Fold change /veh GIMAP4 (11747438_a_at) / RFU KRT8 (11758183_x_at) / Fold change /veh KRT8 (11758183_x_at) / RFU CNN1 (11734310_a_at) / Fold change /veh CNN1 (11734310_a_at) / RFU VPS37D (11726825_at) / Fold change /veh VPS37D (11726825_at) / RFU C10orf10 (11716522_x_at) / Fold change /veh C10orf10 (11716522_x_at) / RFU KIR2DL2 /// KIR2DL4 /// KIR2DL5A /// KIR2DL5B /// KIR2DS1 /// KIR2DS2 /// KIR2DS3 /// KIR2DS4 /// KIR3DL3 /// KIR3DL3 /// KIR3DS1 (11738374_at) / Fold change /veh KIR2DL2 /// KIR2DL4 /// KIR2DL5A /// KIR2DL5B /// KIR2DS1 /// KIR2DS2 /// KIR2DS3 /// KIR2DS4 /// KIR3DL3 /// KIR3DL3 /// KIR3DS1 (11738374_at) / RFU C1QL1 (11718748_at) / Fold change /veh C1QL1 (11718748_at) / RFU TMPRSS4 (11747572_a_at) / Fold change /veh TMPRSS4 (11747572_a_at) / RFU HAMP (11756126_x_at) / Fold change /veh HAMP (11756126_x_at) / RFU RNFT2 (11725882_a_at) / Fold change /veh RNFT2 (11725882_a_at) / RFU NR4A2 (11747474_a_at) / Fold change /veh NR4A2 (11747474_a_at) / RFU ABCC12 (11746883_a_at) / Fold change /veh ABCC12 (11746883_a_at) / RFU TMEM136 (11760407_x_at) / Fold change /veh TMEM136 (11760407_x_at) / RFU CLDN22 /// WWC2 (11732394_at) / Fold change /veh CLDN22 /// WWC2 (11732394_at) / RFU HLA-DPB1 (11760878_x_at) / Fold change /veh HLA-DPB1 (11760878_x_at) / RFU SPINT1 (11716480_a_at) / Fold change /veh SPINT1 (11716480_a_at) / RFU GAP43 (11754022_s_at) / Fold change /veh GAP43 (11754022_s_at) / RFU A4GNT (11735810_at) / Fold change /veh A4GNT (11735810_at) / RFU PRB3 (11715151_x_at) / Fold change /veh PRB3 (11715151_x_at) / RFU TUBB4B (11761932_at) / Fold change /veh TUBB4B (11761932_at) / RFU CAPN14 (11732068_a_at) / Fold change /veh CAPN14 (11732068_a_at) / RFU TMCC2 (11721928_a_at) / Fold change /veh TMCC2 (11721928_a_at) / RFU IRGQ (11745062_a_at) / Fold change /veh IRGQ (11745062_a_at) / RFU FAM174B (11720279_a_at) / Fold change /veh FAM174B (11720279_a_at) / RFU TMPRSS4 (11748680_a_at) / Fold change /veh TMPRSS4 (11748680_a_at) / RFU FAM212B (11763350_a_at) / Fold change /veh FAM212B (11763350_a_at) / RFU PLEKHG5 (11743358_a_at) / Fold change /veh PLEKHG5 (11743358_a_at) / RFU ZSCAN30 (11745921_a_at) / Fold change /veh ZSCAN30 (11745921_a_at) / RFU CMKLR1 (11741424_a_at) / Fold change /veh CMKLR1 (11741424_a_at) / RFU LOC101060620 /// MAPK8IP1 (11723275_at) / Fold change /veh LOC101060620 /// MAPK8IP1 (11723275_at) / RFU SPTSSB (11747773_x_at) / Fold change /veh SPTSSB (11747773_x_at) / RFU PRSS12 (11739890_at) / Fold change /veh PRSS12 (11739890_at) / RFU BIN1 (11741810_x_at) / Fold change /veh BIN1 (11741810_x_at) / RFU WNT11 (11732464_a_at) / Fold change /veh WNT11 (11732464_a_at) / RFU C10orf10 (11716521_a_at) / Fold change /veh C10orf10 (11716521_a_at) / RFU C5orf56 (11738089_at) / Fold change /veh C5orf56 (11738089_at) / RFU CYB561 (11721691_x_at) / Fold change /veh CYB561 (11721691_x_at) / RFU ANKRD19P (11752326_a_at) / Fold change /veh ANKRD19P (11752326_a_at) / RFU OR2T12 /// OR2T33 /// OR2T8 (11738714_s_at) / Fold change /veh OR2T12 /// OR2T33 /// OR2T8 (11738714_s_at) / RFU VCAN (11748164_a_at) / Fold change /veh VCAN (11748164_a_at) / RFU JSRP1 (11732532_at) / Fold change /veh JSRP1 (11732532_at) / RFU KRTAP10-11 (11738290_x_at) / Fold change /veh KRTAP10-11 (11738290_x_at) / RFU MYO3A (11730013_a_at) / Fold change /veh MYO3A (11730013_a_at) / RFU EBF3 (11725865_a_at) / Fold change /veh EBF3 (11725865_a_at) / RFU CAMK2N1 (11719241_x_at) / Fold change /veh CAMK2N1 (11719241_x_at) / RFU C5orf56 (11738088_a_at) / Fold change /veh C5orf56 (11738088_a_at) / RFU OLFML3 (11715873_a_at) / Fold change /veh OLFML3 (11715873_a_at) / RFU LOC100653217 /// NTM (11731650_a_at) / Fold change /veh LOC100653217 /// NTM (11731650_a_at) / RFU MAPK11 (11762145_a_at) / Fold change /veh MAPK11 (11762145_a_at) / RFU FIZ1 (11724087_x_at) / Fold change /veh FIZ1 (11724087_x_at) / RFU OASL (11726364_x_at) / Fold change /veh OASL (11726364_x_at) / RFU SOX15 (11748057_x_at) / Fold change /veh SOX15 (11748057_x_at) / RFU CD79A (11719716_a_at) / Fold change /veh CD79A (11719716_a_at) / RFU HIST1H1D (11736915_at) / Fold change /veh HIST1H1D (11736915_at) / RFU CASKIN2 (11723855_a_at) / Fold change /veh CASKIN2 (11723855_a_at) / RFU LOC730098 (11760151_x_at) / Fold change /veh LOC730098 (11760151_x_at) / RFU OR4N2 (11742367_at) / Fold change /veh OR4N2 (11742367_at) / RFU PRRT2 (11749266_a_at) / Fold change /veh PRRT2 (11749266_a_at) / RFU SNX32 (11753110_a_at) / Fold change /veh SNX32 (11753110_a_at) / RFU CDHR5 (11726645_a_at) / Fold change /veh CDHR5 (11726645_a_at) / RFU RCAN1 (11760418_a_at) / Fold change /veh RCAN1 (11760418_a_at) / RFU FAM167A (11723789_a_at) / Fold change /veh FAM167A (11723789_a_at) / RFU FAM26E (11764081_at) / Fold change /veh FAM26E (11764081_at) / RFU ISYNA1 (11749810_s_at) / Fold change /veh ISYNA1 (11749810_s_at) / RFU ACY1 (11761880_at) / Fold change /veh ACY1 (11761880_at) / RFU 11764098_at / Fold change /veh 11764098_at / RFU SAMD14 (11745864_x_at) / Fold change /veh SAMD14 (11745864_x_at) / RFU NPB (11741838_a_at) / Fold change /veh NPB (11741838_a_at) / RFU TMPRSS6 (11731388_a_at) / Fold change /veh TMPRSS6 (11731388_a_at) / RFU KRTAP10-2 (11738614_at) / Fold change /veh KRTAP10-2 (11738614_at) / RFU ARHGAP8 /// PRR5-ARHGAP8 (11727945_x_at) / Fold change /veh ARHGAP8 /// PRR5-ARHGAP8 (11727945_x_at) / RFU KRTAP5-7 /// NADSYN1 (11734609_at) / Fold change /veh KRTAP5-7 /// NADSYN1 (11734609_at) / RFU RASL12 (11751679_a_at) / Fold change /veh RASL12 (11751679_a_at) / RFU CDKN2B (11736163_a_at) / Fold change /veh CDKN2B (11736163_a_at) / RFU PRF1 (11729649_at) / Fold change /veh PRF1 (11729649_at) / RFU, ZNF638 /// ZNF638-IT1 / Fold change vs veh, ZNF638 /// ZNF638-IT1 / RFU, PANK3 / Fold change vs veh, PANK3 / RFU, SH3YL1 / Fold change vs veh, SH3YL1 / RFU, ZEB2 / Fold change vs veh, ZEB2 / RFU, NRIP1 / Fold change vs veh, NRIP1 / RFU, PTTG1IP / Fold change vs veh, PTTG1IP / RFU, CAPN2 / Fold change vs veh, CAPN2 / RFU, MED14 / Fold change vs veh, MED14 / RFU, SNORA58 / Fold change vs veh, SNORA58 / RFU, C1orf63 / Fold change vs veh, C1orf63 / RFU, LRRFIP1 / Fold change vs veh, LRRFIP1 / RFU, NDUFAF7 / Fold change vs veh, NDUFAF7 / RFU, SLC12A2 / Fold change vs veh, SLC12A2 / RFU, IBTK / Fold change vs veh, IBTK / RFU, ESF1 / Fold change vs veh, ESF1 / Fold change vs veh, TMEM50B / RFU, TAOK1 / Fold change vs veh, TAOK1 / RFU, ACBD3 / Fold change vs veh, ACBD3 / RFU, TMA16 / Fold change vs veh, TMA16 / RFU, RWDD3 / Fold change vs veh, RWDD3 / RFU, BCAT1 / Fold change vs veh, BCAT1 / RFU, EDEM3 / Fold change vs veh, EDEM3 / RFU, TMEM33 / Fold change vs veh, TMEM33 / RFU, WDR75 / Fold change vs veh, WDR75 / RFU, AHCTF1 / Fold change vs veh, AHCTF1 / RFU, TFRC / Fold change vs veh, TFRC / RFU, ZDHHC17 / Fold change vs veh, ZDHHC17 / RFU, NOM1 / Fold change vs veh, NOM1 / RFU, ARL8B / Fold change vs veh, ARL8B / RFU, ZBTB11 / Fold change vs veh, ZBTB11 / RFU, TAMM41 / Fold change vs veh, TAMM41 / RFU, KIAA1704 /// LOC100996395 / Fold change vs veh, KIAA1704 /// LOC100996395 / RFU, ING1 / Fold change vs veh, ING1 / RFU, TRMT61B / Fold change vs veh, TRMT61B / RFU, FUBP3 / Fold change vs veh, FUBP3 / RFU, TP53 / Fold change vs veh, TP53 / RFU, TNKS2 / Fold change vs veh, TNKS2 / RFU, ZFP14 / Fold change vs veh, ZFP14 / RFU, ACTR2 / Fold change vs veh, ACTR2 / RFU, PPP3R1 / Fold change vs veh, PPP3R1 / RFU, PIK3R1 / Fold change vs veh, PIK3R1 / RFU, HNRNPA1 / Fold change vs veh, HNRNPA1 / RFU, RNF170 / Fold change vs veh, RNF170 / RFU, ZNF28 / Fold change vs veh, ZNF28 / RFU, RNGTT / Fold change vs veh, RNGTT / RFU, OGT / Fold change vs veh, OGT / RFU, BRD1 / Fold change vs veh, BRD1 / RFU, MARS / Fold change vs veh, MARS / RFU, ZNF655 / Fold change vs veh, ZNF655 / RFU, FAHD1 / Fold change vs veh, FAHD1 / RFU, BDP1 / Fold change vs veh, BDP1 / RFU, LRRCC1 / Fold change vs veh, LRRCC1 / RFU, ARID1A / Fold change vs veh, ARID1A / RFU, ZNF146 / Fold change vs veh, ZNF146 / RFU, ZNF330 / Fold change vs veh, ZNF330 / RFU, GPN3 / Fold change vs veh, GPN3 / RFU, C9orf123 / Fold change vs veh, C9orf123 / RFU, N4BP2L2 / Fold change vs veh, N4BP2L2 / RFU, ARFIP1 / Fold change vs veh, ARFIP1 / RFU, FAM179B / Fold change vs veh, FAM179B / RFU, BCL10 / Fold change vs veh, BCL10 / RFU, UHRF1BP1L / Fold change vs veh, UHRF1BP1L / RFU, BET1 / Fold change vs veh, BET1 / RFU, CNOT2 / Fold change vs veh, CNOT2 / RFU, ZNF268 / Fold change vs veh, ZNF268 / Fold change vs veh, ZNF507 / RFU, DGCR2 / Fold change vs veh, DGCR2 / RFU, WDSUB1 / Fold change vs veh, WDSUB1 / Fold change vs veh, HSP90B1 /// MIR3652 / RFU, ADSS / Fold change vs veh, ADSS / RFU, GK / Fold change vs veh, GK / RFU, ZNF148 / Fold change vs veh, ZNF148 / RFU, TAF9 / Fold change vs veh, TAF9 / RFU, SLC1A5 / Fold change vs veh, SLC1A5 / RFU, SLMO2 / Fold change vs veh, SLMO2 / RFU, ABCC4 / Fold change vs veh, ABCC4 / RFU, LOC101060439 /// RAP1B / Fold change vs veh, LOC101060439 /// RAP1B / RFU, RFX7 / Fold change vs veh, RFX7 / RFU, GTPBP10 / Fold change vs veh, GTPBP10 / RFU, CNEP1R1 / Fold change vs veh, CNEP1R1 / RFU, BIVM-ERCC5 /// ERCC5 / Fold change vs veh, BIVM-ERCC5 /// ERCC5 / RFU, ILF3 / Fold change vs veh, ILF3 / RFU 11762660_at / Fold change /veh 11762660_at / RFU VCAN (11757783_s_at) / Fold change /veh VCAN (11757783_s_at) / RFU DDX43 (11728927_at) / Fold change /veh DDX43 (11728927_at) / RFU KRT8 (11758188_x_at) / Fold change /veh KRT8 (11758188_x_at) / RFU NKD1 (11759106_at) / Fold change /veh NKD1 (11759106_at) / RFU SRD5A1 (11742802_a_at) / Fold change /veh SRD5A1 (11742802_a_at) / RFU TPSAB1 /// TPSB2 (11721975_s_at) / Fold change /veh TPSAB1 /// TPSB2 (11721975_s_at) / RFU GSTM3 (11746129_a_at) / Fold change /veh GSTM3 (11746129_a_at) / RFU IL23R (11737362_x_at) / Fold change /veh IL23R (11737362_x_at) / RFU TMEM51 (11727254_a_at) / Fold change /veh TMEM51 (11727254_a_at) / RFU PIWIL2 (11732686_x_at) / Fold change /veh PIWIL2 (11732686_x_at) / RFU ORM1 (11744905_x_at) / Fold change /veh ORM1 (11744905_x_at) / RFU CCDC152 (11743942_at) / Fold change /veh CCDC152 (11743942_at) / RFU ECM1 (11717891_a_at) / Fold change /veh ECM1 (11717891_a_at) / RFU IL23R (11748794_a_at) / Fold change /veh IL23R (11748794_a_at) / RFU TNFAIP8L3 (11732012_x_at) / Fold change /veh TNFAIP8L3 (11732012_x_at) / RFU MBOAT4 (11741988_at) / Fold change /veh MBOAT4 (11741988_at) / RFU 11764193_at / Fold change /veh 11764193_at / RFU TMEM53 (11763286_at) / Fold change /veh TMEM53 (11763286_at) / RFU MAGEB2 (11727129_at) / Fold change /veh MAGEB2 (11727129_at) / RFU TMEM200A (11744735_a_at) / Fold change /veh TMEM200A (11744735_a_at) / RFU CCDC152 (11751479_a_at) / Fold change /veh CCDC152 (11751479_a_at) / RFU FAM211A (11726209_a_at) / Fold change /veh FAM211A (11726209_a_at) / RFU RGS16 (11746705_a_at) / Fold change /veh RGS16 (11746705_a_at) / RFU VCAN (11755009_s_at) / Fold change /veh VCAN (11755009_s_at) / RFU RHOB (11743442_s_at) / Fold change /veh RHOB (11743442_s_at) / RFU RGS16 (11720943_a_at) / Fold change /veh RGS16 (11720943_a_at) / RFU RGS16 (11720944_at) / Fold change /veh RGS16 (11720944_at) / RFU, VPS4B / Fold change vs veh, VPS4B / RFU, CREB1 / Fold change vs veh, CREB1 / RFU, DNAJC13 / Fold change vs veh, DNAJC13 / RFU, GNAQ / Fold change vs veh, GNAQ / RFU, CDK5R1 / Fold change vs veh, CDK5R1 / RFU, ZRANB3 / Fold change vs veh, ZRANB3 / RFU, CUL4A / Fold change vs veh, CUL4A / RFU, CCNY / Fold change vs veh, CCNY / RFU, UFL1 / Fold change vs veh, UFL1 / RFU, COG3 / Fold change vs veh, COG3 / RFU, DIAPH2 / Fold change vs veh, DIAPH2 / RFU, SKA2 / Fold change vs veh, SKA2 / RFU, AFF3 / Fold change vs veh, AFF3 / RFU, LMF1 / Fold change vs veh, LMF1 / RFU, IPO11 / Fold change vs veh, IPO11 / RFU, DFFB / Fold change vs veh, DFFB / RFU, FOXP1 / Fold change vs veh, FOXP1 / RFU, CARD8 / Fold change vs veh, CARD8 / RFU, STRN3 / Fold change vs veh, STRN3 / RFU, ADK / Fold change vs veh, ADK / RFU, RASSF2 / Fold change vs veh, RASSF2 / RFU, WIPF1 / Fold change vs veh, WIPF1 / RFU, LARP1B / Fold change vs veh, LARP1B / RFU, RASA1 / Fold change vs veh, RASA1 / RFU, RB1 / Fold change vs veh, RB1 / RFU, PPFIA1 / Fold change vs veh, PPFIA1 / RFU, MAT2A / Fold change vs veh, MAT2A / RFU, CCT5 / Fold change vs veh, CCT5 / RFU, WDR92 / Fold change vs veh, WDR92 / RFU, CUX1 / Fold change vs veh, CUX1 / RFU, TTC7A / Fold change vs veh, TTC7A / RFU, TMEM135 / Fold change vs veh, TMEM135 / RFU, DEPTOR / Fold change vs veh, DEPTOR / RFU, CPM / Fold change vs veh, CPM / RFU, DNAJB6 / Fold change vs veh, DNAJB6 / RFU, CACNA2D3 / Fold change vs veh, CACNA2D3 / RFU, DTX4 / Fold change vs veh, DTX4 / RFU, TFCP2 / Fold change vs veh, TFCP2 / RFU, GMCL1 /// GMCL1P1 / Fold change vs veh, GMCL1 /// GMCL1P1 / RFU, AEBP2 / Fold change vs veh, AEBP2 / RFU, SNHG1 /// SNORD22 /// SNORD25 /// SNORD26 /// SNORD27 /// SNORD28 /// SNORD29 /// SNORD31 / Fold change vs veh, SNHG1 /// SNORD22 /// SNORD25 /// SNORD26 /// SNORD27 /// SNORD28 /// SNORD29 /// SNORD31 / Fold change (Aza/veh), C12orf56 (ProbeSet 11735607_a_at) / Fold change (ACY-1035/veh), C12orf56 (ProbeSet 11735607_a_at) / Fold change (Aza/veh), FGFR1OP (ProbeSet 11751329_s_at) / Fold change (ACY-1035/veh), FGFR1OP (ProbeSet 11751329_s_at) / Fold change (Aza/veh), VPS36 (ProbeSet 11739960_a_at) / Fold change (ACY-1035/veh), VPS36 (ProbeSet 11739960_a_at) / RFU SYPL1 (11715823_x_at) / Fold change /veh SYPL1 (11715823_x_at) / RFU IGFBP7 (11715501_s_at) / Fold change /veh IGFBP7 (11715501_s_at) / RFU REEP3 (11722064_at) / Fold change /veh REEP3 (11722064_at) / RFU IGLL1 (11728026_x_at) / Fold change /veh IGLL1 (11728026_x_at): dose or concentration left out as unconfirmed
Conditions: ProbeSet 11745789_a_at; LIST D

For `Nc1ccc(-c2cccs2)cc1NC(=O)c1ccc2c(c1)cc(C1CC1)n2CCN1CCOCC1` [ACY-1035], the “RFU, TMEM135” value was 185.11 RFU.
